From ChEMBL document CHEMBL1201862, “PubChem BioAssay data set” (2004)
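Step 1: Grow cells in 96-well plates. Step 2: Expose to compound for 48 hours at 5 concentrations. Step 3: Interpolate endpoints linearly; if unreached, use highest concentration. GI50 is the concentration that inhibits growth by half.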 Activity calls are given as the source filed them. No stated cut-off is given here; in the data, active = GI50 up to about 1.1 µM and inactive = higher.

Experiments:
Assay in all cases: growth of human tumour cells (NCI), 48 h
786-0 = system: 786-0
A498 = system: A498
A549 = system: A549
ACHN = system: ACHN
CAKI-1 = system: CAKI-1
CCRF-CEM = system: CCRF-CEM
COLO 205 = system: COLO 205
DLD-1 = system: DLD-1
DMS-114 = system: DMS-114
DMS-273 = system: DMS-273
EKVX = system: EKVX
HCC 2998 = system: HCC 2998
HCT-116 = system: HCT-116
HCT-15 = system: HCT-15
HL-60 = system: HL-60
HOP-18 = system: HOP-18
HOP-62 = system: HOP-62
HOP-92 = system: HOP-92
HT-29 = system: HT-29
IGROV-1 = system: IGROV-1
K562 = system: K562
KM-20L2 = system: KM-20L2
KM12 = system: KM12
LOX IMVI = system: LOX IMVI
LXFL 529 = system: LXFL 529
M14 = system: M14
M19-MEL = system: M19-MEL
MOLT-4 = system: MOLT-4
Malme-3M = system: Malme-3M
NCI-H226 = system: NCI-H226
NCI-H23 = system: NCI-H23
NCI-H460 = system: NCI-H460
NCI-H522 = system: NCI-H522
OVCAR-3 = system: OVCAR-3
OVCAR-4 = system: OVCAR-4
OVCAR-5 = system: OVCAR-5
OVCAR-8 = system: OVCAR-8
RPMI-8226 = system: RPMI-8226
RXF 393 = system: RXF 393
SF-268 = system: SF-268
SF-295 = system: SF-295
SF-539 = system: SF-539
SK-MEL-28 = system: SK-MEL-28
SK-MEL-2 = system: SK-MEL-2
SK-MEL-5 = system: SK-MEL-5
SK-OV-3 = system: SK-OV-3
SN12C = system: SN12C
SNB-19 = system: SNB-19
SNB-75 = system: SNB-75
SNB-78 = system: SNB-78
SR = system: SR
SW-620 = system: SW-620
TK-10 = system: TK-10
U-251 = system: U-251
UACC-257 = system: UACC-257
UACC-62 = system: UACC-62
UO-31 = system: UO-31

**Q.** What does the source list for Cc1cccc(C)c1NC(=O)C(=O)C1C(=O)N(c2ccccc2)N=C1N (stereo unspecified)?
**A.** GI50 (786-0): > 100 µM (inactive); GI50 (A498): > 100 µM (inactive); GI50 (A549): > 100 µM (inactive); GI50 (ACHN): > 100 µM (inactive); GI50 (CAKI-1): > 100 µM (inactive); GI50 (CCRF-CEM): > 100 µM (inactive); GI50 (COLO 205): > 100 µM (inactive); GI50 (DLD-1): > 100 µM (inactive); GI50 (DMS-114): > 100 µM (inactive); GI50 (DMS-273): > 100 µM (inactive); GI50 (EKVX): > 100 µM (inactive); GI50 (HCC 2998): > 100 µM (inactive); GI50 (HCT-116): > 100 µM (inactive); GI50 (HCT-15): > 100 µM; GI50 (HL-60): > 100 µM (inactive); GI50 (HOP-18): > 100 µM (inactive); GI50 (HOP-62): > 100 µM (inactive); GI50 (HOP-92): > 100 µM (inactive); GI50 (HT-29): > 100 µM (inactive); GI50 (IGROV-1): > 100 µM (inactive); GI50 (K562): > 100 µM (inactive); GI50 (KM-20L2): > 100 µM (inactive); GI50 (KM12): > 100 µM (inactive); GI50 (LOX IMVI): > 100 µM (inactive); GI50 (LXFL 529): > 100 µM (inactive); GI50 (M14): > 100 µM (inactive); GI50 (M19-MEL): > 100 µM (inactive); GI50 (MOLT-4): > 100 µM (inactive); GI50 (Malme-3M): > 100 µM (inactive); GI50 (NCI-H226): > 100 µM (inactive); GI50 (NCI-H23): > 100 µM (inactive); GI50 (NCI-H460): > 100 µM (inactive); GI50 (NCI-H522): > 100 µM (inactive); GI50 (OVCAR-3): > 100 µM (inactive); GI50 (OVCAR-4): > 100 µM (inactive); GI50 (OVCAR-5): > 100 µM (inactive); GI50 (OVCAR-8): > 100 µM (inactive); GI50 (RPMI-8226): > 100 µM (inactive); GI50 (RXF 393): > 100 µM (inactive); GI50 (SF-268): > 100 µM (inactive); GI50 (SF-295): > 100 µM (inactive); GI50 (SF-539): > 100 µM (inactive); GI50 (SK-MEL-28): > 100 µM (inactive); GI50 (SK-MEL-2): > 100 µM (inactive); GI50 (SK-MEL-5): > 100 µM (inactive); GI50 (SK-OV-3): > 100 µM (inactive); GI50 (SN12C): > 100 µM (inactive); GI50 (SNB-19): > 100 µM (inactive); GI50 (SNB-75): 94.4 µM (inactive); GI50 (SNB-78): > 100 µM (inactive); GI50 (SR): > 100 µM (inactive); GI50 (SW-620): > 100 µM (inactive); GI50 (TK-10): > 100 µM (inactive); GI50 (U-251): > 100 µM (inactive); GI50 (UACC-257): > 100 µM (inactive); GI50 (UACC-62): > 100 µM (inactive); GI50 (UO-31): > 100 µM (inactive)

**Q.** How did the GI50 (A549) turn out when Cc1cc(O)nc(NN2C(Cl)C(=O)C2c2cccc([N+](=O)[O-])c2)n1 (stereo unspecified) was run?
**A.** 76 µM (inactive)

**Q.** What about the GI50 (ACHN) of the same molecule?
**A.** 29.2 µM (inactive)

**Q.** And the GI50 (CCRF-CEM)?
**A.** 3.52 µM (inactive)

**Q.** What about the GI50 (COLO 205) of the same molecule?
**A.** 22.7 µM (inactive)

**Q.** And the GI50 (DMS-114)?
**A.** 21.8 µM (inactive)

**Q.** What about the GI50 (DMS-273) of the same molecule?
**A.** 15.6 µM (inactive)

**Q.** And the GI50 (EKVX)?
**A.** 63.4 µM (inactive)

**Q.** And the GI50 (HCC 2998)?
**A.** 18.5 µM (inactive)

**Q.** What about the GI50 (HCT-116) of the same molecule?
**A.** 19.7 µM (inactive)

**Q.** And the GI50 (HCT-15)?
**A.** 15.1 µM

**Q.** What about the GI50 (HL-60) of the same molecule?
**A.** 13.5 µM (inactive)

**Q.** What about the GI50 (HOP-18) of the same molecule?
**A.** 18.5 µM (inactive)

**Q.** What about the GI50 (HOP-62) of the same molecule?
**A.** 31.4 µM (inactive)

**Q.** And the GI50 (HOP-92)?
**A.** 19.3 µM (inactive)

**Q.** And the GI50 (HT-29)?
**A.** 19.6 µM (inactive)

**Q.** And the GI50 (IGROV-1)?
**A.** > 10 µM (inactive)

**Q.** What about the GI50 (K562) of the same molecule?
**A.** 18.3 µM (inactive)

**Q.** And the GI50 (KM-20L2)?
**A.** 27.3 µM (inactive)

**Q.** What about the GI50 (KM12) of the same molecule?
**A.** 25.9 µM (inactive)

**Q.** And the GI50 (LOX IMVI)?
**A.** 12.3 µM (inactive)

**Q.** And the GI50 (LXFL 529)?
**A.** 16 µM (inactive)

**Q.** And the GI50 (M14)?
**A.** 17.3 µM (inactive)

**Q.** And the GI50 (M19-MEL)?
**A.** 19.5 µM (inactive)

**Q.** And the GI50 (MOLT-4)?
**A.** 14.3 µM (inactive)

**Q.** What about the GI50 (NCI-H226) of the same molecule?
**A.** 12.3 µM (inactive)

**Q.** What about the GI50 (NCI-H23) of the same molecule?
**A.** 20.7 µM (inactive)

**Q.** And the GI50 (NCI-H460)?
**A.** 26.3 µM (inactive)

**Q.** What about the GI50 (OVCAR-3) of the same molecule?
**A.** 14.8 µM (inactive)

**Q.** What about the GI50 (OVCAR-4) of the same molecule?
**A.** 23.6 µM (inactive)

**Q.** And the GI50 (OVCAR-5)?
**A.** > 100 µM (inactive)

**Q.** And the GI50 (OVCAR-8)?
**A.** 34.8 µM (inactive)

**Q.** And the GI50 (RPMI-8226)?
**A.** 13.7 µM (inactive)

**Q.** And the GI50 (RXF 393)?
**A.** 10 µM (inactive)

**Q.** What about the GI50 (SF-268) of the same molecule?
**A.** 35.2 µM (inactive)

**Q.** And the GI50 (SK-MEL-28)?
**A.** 17.1 µM (inactive)

**Q.** What about the GI50 (SK-MEL-2) of the same molecule?
**A.** 19 µM (inactive)

**Q.** And the GI50 (SK-MEL-5)?
**A.** 17.5 µM (inactive)

**Q.** What about the GI50 (SN12C) of the same molecule?
**A.** 18.1 µM (inactive)

**Q.** What about the GI50 (SNB-19) of the same molecule?
**A.** 44 µM (inactive)

**Q.** And the GI50 (SNB-75)?
**A.** 28 µM (inactive)

**Q.** What about the GI50 (SNB-78) of the same molecule?
**A.** 32.2 µM (inactive)

**Q.** And the GI50 (SR)?
**A.** 16.9 µM (inactive)

**Q.** What about the GI50 (SW-620) of the same molecule?
**A.** 35.1 µM (inactive)

**Q.** What about the GI50 (TK-10) of the same molecule?
**A.** 38.3 µM (inactive)

**Q.** And the GI50 (U-251)?
**A.** 20 µM (inactive)

**Q.** And the GI50 (UACC-257)?
**A.** 29 µM (inactive)

**Q.** And the GI50 (UACC-62)?
**A.** 19.4 µM (inactive)

**Q.** What about the GI50 (UO-31) of the same molecule?
**A.** 36.6 µM (inactive)

**Q.** What does the source list for Cc1ccc(/C=C/C(=O)c2sc(-n3nc(-c4ccccc4)cc3-c3ccccc3)nc2C)cc1?
**A.** GI50 (786-0): > 100 µM (inactive); GI50 (A498): > 100 µM (inactive); GI50 (A549): > 100 µM (inactive); GI50 (ACHN): 65.8 µM (inactive); GI50 (CAKI-1): 12.4 µM (inactive); GI50 (CCRF-CEM): > 100 µM (inactive); GI50 (COLO 205): > 100 µM (inactive); GI50 (DLD-1): > 100 µM (inactive); GI50 (DMS-114): 10.6 µM (inactive); GI50 (DMS-273): > 100 µM (inactive); GI50 (EKVX): 34.8 µM (inactive); GI50 (HCC 2998): 60.8 µM (inactive); GI50 (HCT-15): 57.7 µM; GI50 (HL-60): 36.4 µM (inactive); GI50 (HOP-18): > 100 µM (inactive); GI50 (HOP-62): > 100 µM (inactive); GI50 (HOP-92): > 100 µM (inactive); GI50 (HT-29): 55 µM (inactive); GI50 (IGROV-1): > 100 µM (inactive); GI50 (K562): 77.8 µM (inactive); GI50 (KM-20L2): > 100 µM (inactive); GI50 (KM12): > 100 µM (inactive); GI50 (LOX IMVI): > 100 µM (inactive); GI50 (M19-MEL): > 100 µM (inactive); GI50 (MOLT-4): 8.39 µM (inactive); GI50 (Malme-3M): > 100 µM (inactive); GI50 (NCI-H226): > 100 µM (inactive); GI50 (NCI-H23): > 100 µM (inactive); GI50 (NCI-H460): > 100 µM (inactive); GI50 (NCI-H522): 87.5 µM (inactive); GI50 (OVCAR-3): > 100 µM (inactive); GI50 (OVCAR-5): > 100 µM (inactive); GI50 (OVCAR-8): > 100 µM (inactive); GI50 (RPMI-8226): > 100 µM (inactive); GI50 (RXF 393): > 100 µM (inactive); GI50 (SF-268): > 100 µM (inactive); GI50 (SF-295): > 100 µM (inactive); GI50 (SF-539): > 100 µM (inactive); GI50 (SK-MEL-28): > 100 µM (inactive); GI50 (SK-MEL-2): > 100 µM (inactive); GI50 (SK-MEL-5): 71.1 µM (inactive); GI50 (SK-OV-3): > 100 µM (inactive); GI50 (SN12C): > 100 µM (inactive); GI50 (SNB-75): 4.26 µM (inactive); GI50 (SNB-78): > 100 µM (inactive); GI50 (SW-620): > 100 µM (inactive); GI50 (TK-10): > 100 µM (inactive); GI50 (U-251): > 100 µM (inactive); GI50 (UACC-257): > 100 µM (inactive); GI50 (UACC-62): > 100 µM (inactive); GI50 (UO-31): > 100 µM (inactive)
